Consider 5 compounds from patent US5891901A, “Substituted pyrroles” (Hoffmann-La Roche Inc., priority 1997, dated 1999).

In test [1] the test system is MDA-MB435 cells. In words: Antiproliferative activity, MDA-MB435 epithelial breast carcinoma cell line (MTT). The test is classed as cell-based. The following applies: Homo sapiens, MDA-MB-435, 120 h, MTT at day 5 post-drug addition, values marked * (Compounds A, B, D) are an average of two separate experiments, read-out: Antiproliferative Activity, MDAMB435 IC50. As to the method: (§1) The epithelial breast carcinoma cell line, MDA-MB435 and the colon carcinoma cell line, SW480, were purchased from ATCC (American Type Culture Collection) and were grown in culture in medium as recommended by ATCC. For analysis of the effect of various compounds on growth of these cells, the cells were plated at a concentration of 1500 cells/well in a 96 well tissue culture plate ("test plate"). The day after the cells were plated, the compounds to be analyzed were dissolved in 100% DMSO (dimethyl sulfoxide) to yield a 10 mM stock solution. Each compound was diluted in H2 O to 1 mM and was added to triplicate wells in the first row of a 96 well master plate which contains medium to yield a final concentration of 40 μM. The compounds were then serially diluted in medium in the "master plate". The diluted compound(s) were then transferred to test plates containing cells. A row of vehicle "control cells" received DMSO. The final concentration of DMSO in each well was 0.1%. At day 5 post-drug addition, the plate containing MDA-MB435 cells were analyzed as follows. Plates containing SW480 cells were analyzed at day 7 post-drug addition as follows.
(§2) MTT ([3-(4,5-dimethylthiazole-2-yl)-2,5-diphenyl-2H-tetrazolium bromide]; thiazolyl blue) was added to each well to yield a final concentration of 1 mg/ml. The plate was then incubated at 37° C. for 21/2-3 hours. The MTT containing medium was then removed and 50 μl of 100% ethanol was added to each well to dissolve the formazan. The absorbences were then read using an automated plate reader (Bio-tek microplate reader). IC50 's were calculated using the Reed and Munsch equation, see, Am. J. Hygiene Vol. 27 pgs. 493-497, 1938.

Test [2] concerns SW480 cells. In words: Antiproliferative activity, SW480 colon carcinoma cell line (MTT). The test is classed as cell-based. The settings on record: Homo sapiens, 168 h, MTT at day 7 post-drug addition, values marked * (Compounds A, B, C) are an average of two separate experiments. As to the method: as §1, §2

As for `Cc1ccc2c(C3=C(c4cn(C)c5ccccc45)C(=O)NC3=O)cn(C)c2c1` [Compound A, 3-(1,6-dimethyl-1H-indol-3-yl)-4-(1-methyl-1H-indol-3yl)-pyrrole-2,5-dione], the half-inhibitory concentration (IC50) in test [1] is 33 nM; in test [2] it was 29 nM.
The matching figures for `CSc1ccc2c(C3=C(c4cn(C)c5ccccc45)C(=O)NC3=O)cn(C)c2c1` [Compound B, 3-(6-methylsulfanyl-1-methyl-1H-indol-3-yl)-4-(1-methyl-1H-indol-3-yl)-pyrrole-2,5-dione]: 45 nM and 70 nM.
Regarding `Cn1cc(C2=C(c3cn(C)c4cc(O)ccc34)C(=O)NC2=O)c2ccccc21` [Compound C, 3-(6-hydroxy-1-methyl-1H-indol-3-yl)-4-(1-methyl-1H-indol-3-yl)-pyrrole-2,5-dione], the results for the 50% inhibitory concentration (IC50) in test [1] and in test [2] were 30 nM and 70 nM, respectively.
Consider `CCc1ccc2c(C3=C(c4cn(C)c5ccccc45)C(=O)NC3=O)cn(C)c2c1` [Compound D, 3-(6-ethyl-1-methyl-1H-indol-3-yl)-4-(1-methyl-1H-indol-3-yl)-pyrrole-2,5-dione], for which the concentration for half-maximal inhibition (IC50) in test [1] turned out to be 80 nM.
As to `Cn1cc(C2=C(c3cn(C)c4cc(CC#N)ccc34)C(=O)NC2=O)c2ccccc21` [Compound E, {1-methyl-3-[4-(1-methyl-1H-indol-3-yl)-2,5-dioxo-2,5-dihydro-1H-pyrrol-3-yl]-1H-indol-6-yl}-acetonitrile], the half-maximal inhibitory concentration (IC50) in test [1] worked out at 200 nM.

As a reminder, the IC50 is the midpoint of a concentration-inhibition curve.
